Active and inactive are the calls of the source. The rule behind the calls is not given here.

This note sets out measurements from ChEMBL document CHEMBL3797068, “eCF309: a potent, selective and cell-permeable mTOR inhibitor” (Medchemcomm, 2016).

Assay [1] has as its target Tyrosine-protein kinase Blk (Homo sapiens, UniProt P51451). In words: Inhibition of human BLK using (poly [Glu, Tyr] 4:1) as substrate assessed as incorporation of 33P in substrate by [gamma33P] ATP-based kinase assay.
Assay [2] has as its target Tyrosine-protein kinase ABL1 (Homo sapiens, UniProt P00519). In words: Inhibition of human ABL using (poly [Glu, Tyr] 4:1) as substrate assessed as incorporation of 33P in substrate by [gamma33P] ATP-based kinase assay.
Assay [3] addresses Tyrosine-protein kinase Fyn (Homo sapiens, UniProt P06241). The experiment in a line: Inhibition of human FYN using (poly [Glu, Tyr] 4:1) as substrate assessed as incorporation of 33P in substrate by [gamma33P] ATP-based kinase assay.
Assay [4] concerns the target Proto-oncogene tyrosine-protein kinase receptor Ret (Homo sapiens, UniProt P07949). The experiment in a line: Inhibition of human RET using (poly [Glu, Tyr] 4:1) as substrate assessed as incorporation of 33P in substrate by [gamma33P] ATP-based kinase assay.
For assay [5], the target named is Tyrosine-protein kinase Yes (Homo sapiens, UniProt P07947). In words: Inhibition of human YES using (poly [Glu, Tyr] 4:1) as substrate assessed as incorporation of 33P in substrate by [gamma33P] ATP-based kinase assay.
In assay [6] the target is T1, Phosphatidylinositol 4,5-bisphosphate 3-kinase catalytic subunit alpha isoform (Homo sapiens, UniProt P42336). In words: Inhibition of PI3Kalpha (unknown origin) using (poly [Glu, Tyr] 4:1) as substrate assessed as incorporation of 33P in substrate by [gamma33P] ATP-based kinase assay.
The target of assay [7] is Phosphatidylinositol 4,5-bisphosphate 3-kinase catalytic subunit beta isoform (Homo sapiens, UniProt P42338). The experiment in a line: Inhibition of PI3Kbeta (unknown origin) using (poly [Glu, Tyr] 4:1) as substrate assessed as incorporation of 33P in substrate by [gamma33P] ATP-based kinase assay.
Assay [8] deals with T2, Phosphatidylinositol 4,5-bisphosphate 3-kinase catalytic subunit gamma isoform (Homo sapiens, UniProt P48736). The experiment in a line: Inhibition of PI3Kgamma (unknown origin) using (poly [Glu, Tyr] 4:1) as substrate assessed as incorporation of 33P in substrate by [gamma33P] ATP-based kinase assay.
Target sequence in this assay (P48736 whole entry, canonical isoform): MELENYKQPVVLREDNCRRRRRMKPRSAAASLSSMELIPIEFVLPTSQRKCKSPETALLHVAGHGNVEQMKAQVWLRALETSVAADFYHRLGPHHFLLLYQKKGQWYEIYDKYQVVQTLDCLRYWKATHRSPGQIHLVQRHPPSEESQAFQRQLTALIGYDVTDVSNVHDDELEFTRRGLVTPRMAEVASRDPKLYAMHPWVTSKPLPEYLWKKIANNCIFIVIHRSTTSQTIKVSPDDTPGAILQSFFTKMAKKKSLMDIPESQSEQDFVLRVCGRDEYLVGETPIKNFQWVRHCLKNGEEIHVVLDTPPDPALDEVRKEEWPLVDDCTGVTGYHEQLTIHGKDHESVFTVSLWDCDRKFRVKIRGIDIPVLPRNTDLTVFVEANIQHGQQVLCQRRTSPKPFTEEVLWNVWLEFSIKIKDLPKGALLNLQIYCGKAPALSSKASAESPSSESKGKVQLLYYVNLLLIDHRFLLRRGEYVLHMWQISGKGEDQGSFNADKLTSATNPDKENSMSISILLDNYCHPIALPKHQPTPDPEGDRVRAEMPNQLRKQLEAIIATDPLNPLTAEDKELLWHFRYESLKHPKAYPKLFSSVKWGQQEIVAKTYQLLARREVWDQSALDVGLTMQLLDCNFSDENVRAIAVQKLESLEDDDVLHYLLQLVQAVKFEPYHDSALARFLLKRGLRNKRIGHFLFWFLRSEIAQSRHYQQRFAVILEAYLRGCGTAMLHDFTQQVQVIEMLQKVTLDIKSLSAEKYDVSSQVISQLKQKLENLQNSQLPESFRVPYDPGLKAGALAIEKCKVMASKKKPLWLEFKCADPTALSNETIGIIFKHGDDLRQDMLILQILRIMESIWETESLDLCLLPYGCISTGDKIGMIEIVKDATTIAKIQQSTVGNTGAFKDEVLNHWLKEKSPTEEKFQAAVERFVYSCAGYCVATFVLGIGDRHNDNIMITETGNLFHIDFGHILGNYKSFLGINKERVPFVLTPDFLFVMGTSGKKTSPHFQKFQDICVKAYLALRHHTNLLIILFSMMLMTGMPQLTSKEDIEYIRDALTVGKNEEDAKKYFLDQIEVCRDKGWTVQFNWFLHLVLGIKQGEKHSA
Assay [9] addresses T3, Phosphatidylinositol 4,5-bisphosphate 3-kinase catalytic subunit delta isoform (Homo sapiens, UniProt O00329).
T3 sequence (O00329 whole entry): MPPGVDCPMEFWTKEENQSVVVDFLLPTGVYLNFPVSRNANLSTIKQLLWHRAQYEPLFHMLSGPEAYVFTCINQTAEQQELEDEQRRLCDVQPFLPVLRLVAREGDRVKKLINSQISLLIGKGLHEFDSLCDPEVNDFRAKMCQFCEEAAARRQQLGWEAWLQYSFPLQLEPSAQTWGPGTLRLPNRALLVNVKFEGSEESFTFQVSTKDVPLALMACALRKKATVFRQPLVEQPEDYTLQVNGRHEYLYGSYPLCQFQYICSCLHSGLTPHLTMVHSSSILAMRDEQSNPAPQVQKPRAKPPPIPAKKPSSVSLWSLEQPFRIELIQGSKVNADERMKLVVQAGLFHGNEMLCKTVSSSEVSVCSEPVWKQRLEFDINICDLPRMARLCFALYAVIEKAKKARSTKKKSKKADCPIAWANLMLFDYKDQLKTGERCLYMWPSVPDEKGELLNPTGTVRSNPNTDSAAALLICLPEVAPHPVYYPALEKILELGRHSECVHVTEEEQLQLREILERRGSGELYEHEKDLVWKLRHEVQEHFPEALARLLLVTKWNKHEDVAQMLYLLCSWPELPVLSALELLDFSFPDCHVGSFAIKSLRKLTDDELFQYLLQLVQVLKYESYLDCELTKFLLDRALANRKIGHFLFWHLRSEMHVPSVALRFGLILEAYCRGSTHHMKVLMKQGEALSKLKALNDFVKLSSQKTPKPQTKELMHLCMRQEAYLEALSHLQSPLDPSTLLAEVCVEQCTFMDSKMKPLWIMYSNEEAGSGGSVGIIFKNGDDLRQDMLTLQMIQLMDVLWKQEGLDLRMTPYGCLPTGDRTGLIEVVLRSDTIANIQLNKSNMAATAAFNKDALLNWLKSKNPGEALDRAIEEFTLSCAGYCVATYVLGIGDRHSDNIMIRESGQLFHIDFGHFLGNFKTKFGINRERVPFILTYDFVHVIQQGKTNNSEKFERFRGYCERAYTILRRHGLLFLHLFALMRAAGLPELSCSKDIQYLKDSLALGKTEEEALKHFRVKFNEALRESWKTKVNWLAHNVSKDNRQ
The experiment in a line: Inhibition of PI3Kdelta (unknown origin) using (poly [Glu, Tyr] 4:1) as substrate assessed as incorporation of 33P in substrate by [gamma33P] ATP-based kinase assay.

Assay [10] has as its target T1, Phosphatidylinositol 4,5-bisphosphate 3-kinase catalytic subunit alpha isoform. The experiment in a line: Inhibition of PI3Kalpha (unknown origin) using PIP2 as substrate by HTRF assay. For orientation: Time-resolved FRET reads energy transfer from a long-lived donor to a nearby acceptor.
For assay [11], the target named is T2, Phosphatidylinositol 4,5-bisphosphate 3-kinase catalytic subunit gamma isoform. In words: Inhibition of PI3Kgamma (unknown origin) using PIP2 as substrate by HTRF assay.
Target sequence in this assay (P48736 whole entry, canonical isoform): as the sequence (P48736 whole entry, canonical isoform) above
The target in assay [12] is T3, Phosphatidylinositol 4,5-bisphosphate 3-kinase catalytic subunit delta isoform. The experiment in a line: Inhibition of PI3Kdelta (unknown origin) using PIP2 as substrate by HTRF assay.
The target of assay [13] is Serine/threonine-protein kinase mTOR (Homo sapiens, UniProt P42345). In words: Inhibition of human mTOR at 10 uM by kinome profiling method.
Assay [14] concerns the target T2, Phosphatidylinositol 4,5-bisphosphate 3-kinase catalytic subunit gamma isoform. In words: Inhibition of human PI3Kgamma at 10 uM by kinome profiling method.
Target sequence in this assay (P48736 whole entry, looked up, canonical isoform): as the sequence (P48736 whole entry, canonical isoform) above
Assay [15] addresses DNA-dependent protein kinase catalytic subunit (Homo sapiens, UniProt P78527). The experiment in a line: Inhibition of human DNA-PK at 10 uM by kinome profiling method.
Assay [16] has as its target Epithelial discoidin domain-containing receptor 1 (Homo sapiens, UniProt Q08345). In words: Inhibition of human DDR1 at 10 uM by kinome profiling method.
In assay [17] the test system is MDA-MB-231. In words: Cytotoxicity against human MDA-MB-231 cells after 5 days by Presto blue reagent-based spectrofluorometric analysis. Type of assay: functional, cell-based. The settings on record: MDA-MB-231, 120 h.
Assay [18] is described as follows: Cytotoxicity against human PC3 cells after 5 days by Presto blue reagent-based spectrofluorometric analysis. Format: functional, cell-based. The conditions noted are these: PC-3, 120 h.
The test system of assay [19] is MDA-MB-231. In words: Cell cycle arrest in human MDA-MB-231 cells assessed as increase in G0/G1 population after 24 hrs by Hoechst 33342 staining-based fluorescence analysis. Format: functional.
Assay [20] has as its target T4, mTORC1 (Homo sapiens) (UniProt P42345+Q8N122+Q9BVC4). In words: Inhibition of mTORC1 in human MCF7 cells assessed as reduction in phosphorylated P70S6K preincubated for 30 mins followed by serum stimulation for 1 hr by Western blot analysis. Type of assay: cell-based.
In assay [21] the test system is MCF7. The experiment in a line: Inhibition of mTORC2 in human MCF7 cells assessed as reduction in phosphorylated AKT level preincubated for 30 mins followed by serum stimulation for 1 hr by Western blot analysis. Format: cell-based.
Assay [22] addresses T4, mTORC1 (Homo sapiens). The experiment in a line: Inhibition of mTORC1 in human MCF7 cells assessed as reduction in phosphorylated S6 at 30 nM preincubated for 30 mins followed by serum stimulation for 1 hr by Western blot analysis. Format: cell-based.
Assay [23] concerns MCF7. The experiment in a line: Inhibition of mTORC2 in human MCF7 cells assessed as reduction in phosphorylated AKT level at 30 nM preincubated for 30 mins followed by serum stimulation for 1 hr by Western blot analysis. Type of assay: cell-based.

T1 sequence (P42336 whole entry, canonical isoform): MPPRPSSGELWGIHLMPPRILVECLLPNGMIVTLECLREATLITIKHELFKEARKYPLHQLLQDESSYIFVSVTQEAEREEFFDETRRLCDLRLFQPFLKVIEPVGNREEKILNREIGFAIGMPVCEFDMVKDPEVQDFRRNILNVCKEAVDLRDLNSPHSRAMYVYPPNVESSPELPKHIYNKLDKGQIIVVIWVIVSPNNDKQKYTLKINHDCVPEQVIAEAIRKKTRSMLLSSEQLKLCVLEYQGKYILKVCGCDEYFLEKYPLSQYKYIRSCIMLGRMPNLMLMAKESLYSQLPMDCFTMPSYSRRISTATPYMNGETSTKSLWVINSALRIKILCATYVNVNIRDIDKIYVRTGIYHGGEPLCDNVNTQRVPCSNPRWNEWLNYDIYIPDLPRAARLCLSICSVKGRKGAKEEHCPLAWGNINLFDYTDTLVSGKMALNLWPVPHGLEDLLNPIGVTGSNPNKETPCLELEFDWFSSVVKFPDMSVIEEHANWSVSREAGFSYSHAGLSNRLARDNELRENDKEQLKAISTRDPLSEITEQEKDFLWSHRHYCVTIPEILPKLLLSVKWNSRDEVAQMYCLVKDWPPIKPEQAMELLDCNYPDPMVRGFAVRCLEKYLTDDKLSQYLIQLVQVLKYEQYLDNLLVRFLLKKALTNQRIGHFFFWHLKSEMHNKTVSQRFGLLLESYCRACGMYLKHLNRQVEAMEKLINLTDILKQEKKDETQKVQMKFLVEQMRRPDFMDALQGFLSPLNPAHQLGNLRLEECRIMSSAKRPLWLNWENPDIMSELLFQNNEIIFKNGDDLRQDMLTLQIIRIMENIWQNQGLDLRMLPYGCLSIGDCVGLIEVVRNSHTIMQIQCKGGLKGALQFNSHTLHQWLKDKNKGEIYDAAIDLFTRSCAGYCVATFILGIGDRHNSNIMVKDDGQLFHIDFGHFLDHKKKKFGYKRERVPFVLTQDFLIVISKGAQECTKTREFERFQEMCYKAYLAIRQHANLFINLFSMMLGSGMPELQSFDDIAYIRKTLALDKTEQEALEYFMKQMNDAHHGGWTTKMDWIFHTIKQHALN
T4 sequence (Q8N122 whole entry, looked up, other chains not shown): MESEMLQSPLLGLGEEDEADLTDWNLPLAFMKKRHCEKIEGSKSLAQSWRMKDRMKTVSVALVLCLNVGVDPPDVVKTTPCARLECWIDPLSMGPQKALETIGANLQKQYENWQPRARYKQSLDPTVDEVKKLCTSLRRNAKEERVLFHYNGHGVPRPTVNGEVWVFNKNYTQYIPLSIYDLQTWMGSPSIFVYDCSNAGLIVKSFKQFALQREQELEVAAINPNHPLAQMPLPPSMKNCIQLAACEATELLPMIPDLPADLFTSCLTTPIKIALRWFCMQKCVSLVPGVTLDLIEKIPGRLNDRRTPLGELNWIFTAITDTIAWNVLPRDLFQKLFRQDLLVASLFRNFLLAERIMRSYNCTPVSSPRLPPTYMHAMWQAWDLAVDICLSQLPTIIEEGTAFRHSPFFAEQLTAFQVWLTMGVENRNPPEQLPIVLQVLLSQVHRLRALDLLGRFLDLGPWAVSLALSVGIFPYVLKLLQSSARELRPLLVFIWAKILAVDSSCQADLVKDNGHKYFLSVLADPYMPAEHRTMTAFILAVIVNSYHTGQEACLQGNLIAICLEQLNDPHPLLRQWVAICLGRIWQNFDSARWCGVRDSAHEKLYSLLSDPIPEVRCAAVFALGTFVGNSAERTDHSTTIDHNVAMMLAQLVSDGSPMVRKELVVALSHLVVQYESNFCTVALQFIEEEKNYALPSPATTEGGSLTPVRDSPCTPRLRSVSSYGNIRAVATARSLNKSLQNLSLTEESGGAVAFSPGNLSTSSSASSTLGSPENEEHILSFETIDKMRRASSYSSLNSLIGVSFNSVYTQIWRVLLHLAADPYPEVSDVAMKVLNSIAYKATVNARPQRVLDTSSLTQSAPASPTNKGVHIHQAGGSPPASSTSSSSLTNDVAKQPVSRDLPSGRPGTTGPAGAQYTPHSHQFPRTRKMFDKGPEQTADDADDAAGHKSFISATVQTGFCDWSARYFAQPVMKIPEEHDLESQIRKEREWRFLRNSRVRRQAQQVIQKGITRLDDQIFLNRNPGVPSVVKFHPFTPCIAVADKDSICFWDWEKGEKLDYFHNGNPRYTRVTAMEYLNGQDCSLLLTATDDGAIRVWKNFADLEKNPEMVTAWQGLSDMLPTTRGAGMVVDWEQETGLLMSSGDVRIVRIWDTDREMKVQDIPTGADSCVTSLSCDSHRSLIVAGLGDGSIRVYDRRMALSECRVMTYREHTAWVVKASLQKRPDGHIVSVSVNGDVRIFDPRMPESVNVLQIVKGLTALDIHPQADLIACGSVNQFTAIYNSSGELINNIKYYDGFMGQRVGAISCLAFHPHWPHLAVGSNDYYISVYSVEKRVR
T4 sequence (Q9BVC4 whole entry, looked up, other chains not shown): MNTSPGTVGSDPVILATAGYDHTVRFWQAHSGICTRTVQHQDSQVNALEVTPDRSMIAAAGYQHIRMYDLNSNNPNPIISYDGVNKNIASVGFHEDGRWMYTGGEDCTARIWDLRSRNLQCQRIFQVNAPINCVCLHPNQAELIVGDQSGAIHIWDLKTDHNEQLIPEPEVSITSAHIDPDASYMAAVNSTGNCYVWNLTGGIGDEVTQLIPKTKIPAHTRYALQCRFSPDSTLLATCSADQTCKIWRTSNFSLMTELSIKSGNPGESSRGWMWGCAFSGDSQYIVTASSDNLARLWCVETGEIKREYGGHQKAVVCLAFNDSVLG
Sequence of Tyrosine-protein kinase Fyn (P06241 whole entry): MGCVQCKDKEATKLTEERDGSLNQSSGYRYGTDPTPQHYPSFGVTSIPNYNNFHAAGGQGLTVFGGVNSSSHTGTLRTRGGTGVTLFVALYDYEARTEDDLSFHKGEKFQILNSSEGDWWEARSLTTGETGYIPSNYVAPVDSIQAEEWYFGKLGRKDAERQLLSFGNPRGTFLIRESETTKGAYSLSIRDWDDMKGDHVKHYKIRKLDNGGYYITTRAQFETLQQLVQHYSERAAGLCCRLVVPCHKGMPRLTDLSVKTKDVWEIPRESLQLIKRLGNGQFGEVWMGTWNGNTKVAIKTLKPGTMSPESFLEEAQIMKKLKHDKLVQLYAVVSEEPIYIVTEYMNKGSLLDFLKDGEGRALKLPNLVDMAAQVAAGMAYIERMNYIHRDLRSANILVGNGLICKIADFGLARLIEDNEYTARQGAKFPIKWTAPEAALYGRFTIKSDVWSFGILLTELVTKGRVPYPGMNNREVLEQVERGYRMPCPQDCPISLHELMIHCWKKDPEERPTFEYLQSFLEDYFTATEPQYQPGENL
Sequence of Tyrosine-protein kinase Yes (P07947 whole entry, canonical isoform): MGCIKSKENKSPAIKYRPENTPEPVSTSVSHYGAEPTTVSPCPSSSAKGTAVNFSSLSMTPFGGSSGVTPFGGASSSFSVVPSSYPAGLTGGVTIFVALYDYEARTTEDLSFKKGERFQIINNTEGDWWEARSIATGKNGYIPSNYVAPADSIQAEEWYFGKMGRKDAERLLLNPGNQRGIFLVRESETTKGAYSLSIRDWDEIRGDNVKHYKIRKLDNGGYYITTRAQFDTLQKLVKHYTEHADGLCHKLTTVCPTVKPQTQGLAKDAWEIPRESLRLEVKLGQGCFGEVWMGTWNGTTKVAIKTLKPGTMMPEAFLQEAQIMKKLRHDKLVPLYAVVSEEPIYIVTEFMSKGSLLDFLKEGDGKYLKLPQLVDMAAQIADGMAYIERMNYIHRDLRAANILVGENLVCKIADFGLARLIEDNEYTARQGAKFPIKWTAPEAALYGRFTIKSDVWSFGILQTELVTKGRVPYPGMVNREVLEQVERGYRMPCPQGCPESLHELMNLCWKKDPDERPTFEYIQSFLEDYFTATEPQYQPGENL

One may read the IC50 as the concentration needed to halve the response being measured. The term inhibition denotes how much of the control response was suppressed. As usually defined, the EC50 is the concentration that produces a half-maximal response. On to `CCOC(Cn1nc(-c2ccc3oc(N)nc3c2)c2c(N)ncnc21)OCC`, for which the 50% inhibitory concentration (IC50) in assay [1] was above 100 µM; in [2], above 100 µM; in assay [3] it was above 100 µM; in assay [4], above 100 µM; in assay [5], above 100 µM; in assay [6], 0.981 µM. In addition, the IC50 in assay [7] was above 100 µM; in [8], 1.34 µM; in [9], 1.84 µM; in [10], 0.981 µM; in assay [11], 1.34 µM; in assay [12] it was 1.84 µM. Besides, the inhibition in assay [13] is 99%; in [14] it was 85%; in assay [15] it was 90%; in [16], 77%; at mTORC1 (Homo sapiens) [20], “Dose-dependent effect”; with MCF7 [21] it was “Dose-dependent effect”. Moreover, the inhibition on mTORC1 (Homo sapiens) [22] and in the assay on MCF7 [23] was 100% each time. Besides, the concentration for a half-maximal effect (EC50) amounted to 0.072 µM with MDA-MB-231 [17] and 0.037 µM in [18]. Moreover, the result in the assay with MDA-MB-231 [19] was Active.
